One experiment deals with PIK3CA (UniProt P42336). Briefly: Inhibition of PIK3CA Kinase Activity. The settings on record: for inhibition: concentration not given here.
In a further experiment the target is PIK3CB (UniProt P42338). Briefly: Inhibition of PIK3CB Kinase Activity. The settings on record: for inhibition: concentration not given here.
The next experiment relates to PIK3CD (mouse). Briefly: Assessment of Stimulus Induced B Cell Proliferation. The settings on record: b cells.
Experiment [1] addresses PIK3CD (Human) (UniProt O00329). Briefly: Assessment of Stimulus Induced TCE Cell Proliferation. The settings on record: t cells.
The target is the same in experiment [2]. Briefly: Evaluation of PIK3CD inhibitors on Elastase Release in Human PMN Cells.

The structures appear in SMILES notation. “And” between values parts separate entries of the source, which are not always exact repeats. Identical values can stand only once. Where only a bound is given, the exact number is not on record here.

Chain of PIK3CB (P42338 whole entry, looked up): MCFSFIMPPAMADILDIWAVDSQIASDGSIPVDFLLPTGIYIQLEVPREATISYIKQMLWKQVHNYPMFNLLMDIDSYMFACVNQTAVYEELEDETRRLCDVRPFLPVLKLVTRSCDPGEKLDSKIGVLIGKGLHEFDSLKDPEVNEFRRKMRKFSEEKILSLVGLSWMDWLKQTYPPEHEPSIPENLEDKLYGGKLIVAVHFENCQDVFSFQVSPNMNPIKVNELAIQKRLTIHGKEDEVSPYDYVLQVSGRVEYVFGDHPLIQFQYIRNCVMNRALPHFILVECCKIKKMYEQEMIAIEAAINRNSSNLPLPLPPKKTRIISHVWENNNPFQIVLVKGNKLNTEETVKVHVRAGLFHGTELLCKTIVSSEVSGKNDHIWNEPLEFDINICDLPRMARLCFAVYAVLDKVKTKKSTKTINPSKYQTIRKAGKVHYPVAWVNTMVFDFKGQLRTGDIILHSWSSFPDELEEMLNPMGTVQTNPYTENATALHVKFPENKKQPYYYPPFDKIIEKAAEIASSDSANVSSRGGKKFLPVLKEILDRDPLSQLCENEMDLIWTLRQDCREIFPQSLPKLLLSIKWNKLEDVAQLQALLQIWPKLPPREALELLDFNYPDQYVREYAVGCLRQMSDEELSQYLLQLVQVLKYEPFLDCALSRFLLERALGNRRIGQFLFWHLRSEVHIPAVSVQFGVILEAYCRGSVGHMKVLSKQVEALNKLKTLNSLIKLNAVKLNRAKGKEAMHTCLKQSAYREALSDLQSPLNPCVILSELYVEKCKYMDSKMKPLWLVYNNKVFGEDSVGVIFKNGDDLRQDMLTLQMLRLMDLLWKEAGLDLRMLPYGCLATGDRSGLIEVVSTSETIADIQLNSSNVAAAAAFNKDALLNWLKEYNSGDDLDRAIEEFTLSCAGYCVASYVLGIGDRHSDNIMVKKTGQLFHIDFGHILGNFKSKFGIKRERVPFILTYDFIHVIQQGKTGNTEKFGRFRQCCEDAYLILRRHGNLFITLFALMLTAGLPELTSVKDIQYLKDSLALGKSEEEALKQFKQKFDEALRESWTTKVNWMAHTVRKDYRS
Chain of PIK3CA (P42336 whole entry, looked up): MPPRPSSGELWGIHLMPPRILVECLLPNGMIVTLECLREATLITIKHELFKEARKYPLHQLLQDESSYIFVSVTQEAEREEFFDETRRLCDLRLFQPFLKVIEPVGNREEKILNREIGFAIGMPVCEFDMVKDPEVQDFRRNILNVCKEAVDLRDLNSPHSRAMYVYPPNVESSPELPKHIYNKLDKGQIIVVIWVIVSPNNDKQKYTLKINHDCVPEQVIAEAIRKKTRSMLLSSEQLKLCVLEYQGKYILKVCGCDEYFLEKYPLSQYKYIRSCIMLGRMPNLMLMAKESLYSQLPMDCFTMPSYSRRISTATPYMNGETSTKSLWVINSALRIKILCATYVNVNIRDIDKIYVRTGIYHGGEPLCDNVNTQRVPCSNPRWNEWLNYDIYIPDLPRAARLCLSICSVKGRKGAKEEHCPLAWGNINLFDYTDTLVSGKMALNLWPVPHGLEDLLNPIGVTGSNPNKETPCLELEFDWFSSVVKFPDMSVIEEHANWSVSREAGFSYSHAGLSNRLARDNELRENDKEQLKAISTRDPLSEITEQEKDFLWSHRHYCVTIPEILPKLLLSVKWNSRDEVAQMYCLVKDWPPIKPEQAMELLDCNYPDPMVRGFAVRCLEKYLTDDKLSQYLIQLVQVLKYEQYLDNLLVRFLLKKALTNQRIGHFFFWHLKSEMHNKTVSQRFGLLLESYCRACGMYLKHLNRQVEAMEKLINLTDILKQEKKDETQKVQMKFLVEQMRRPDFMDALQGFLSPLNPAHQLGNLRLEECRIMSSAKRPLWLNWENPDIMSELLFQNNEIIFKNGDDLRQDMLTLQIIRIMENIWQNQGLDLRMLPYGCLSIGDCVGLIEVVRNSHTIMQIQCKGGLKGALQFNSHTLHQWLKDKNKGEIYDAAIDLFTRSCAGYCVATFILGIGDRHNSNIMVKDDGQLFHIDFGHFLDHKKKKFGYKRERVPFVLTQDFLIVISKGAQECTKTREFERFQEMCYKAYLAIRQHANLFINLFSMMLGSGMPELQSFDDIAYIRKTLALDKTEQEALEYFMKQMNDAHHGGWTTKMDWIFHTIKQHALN
Chain of PIK3CD (Human) (O00329 whole entry, looked up): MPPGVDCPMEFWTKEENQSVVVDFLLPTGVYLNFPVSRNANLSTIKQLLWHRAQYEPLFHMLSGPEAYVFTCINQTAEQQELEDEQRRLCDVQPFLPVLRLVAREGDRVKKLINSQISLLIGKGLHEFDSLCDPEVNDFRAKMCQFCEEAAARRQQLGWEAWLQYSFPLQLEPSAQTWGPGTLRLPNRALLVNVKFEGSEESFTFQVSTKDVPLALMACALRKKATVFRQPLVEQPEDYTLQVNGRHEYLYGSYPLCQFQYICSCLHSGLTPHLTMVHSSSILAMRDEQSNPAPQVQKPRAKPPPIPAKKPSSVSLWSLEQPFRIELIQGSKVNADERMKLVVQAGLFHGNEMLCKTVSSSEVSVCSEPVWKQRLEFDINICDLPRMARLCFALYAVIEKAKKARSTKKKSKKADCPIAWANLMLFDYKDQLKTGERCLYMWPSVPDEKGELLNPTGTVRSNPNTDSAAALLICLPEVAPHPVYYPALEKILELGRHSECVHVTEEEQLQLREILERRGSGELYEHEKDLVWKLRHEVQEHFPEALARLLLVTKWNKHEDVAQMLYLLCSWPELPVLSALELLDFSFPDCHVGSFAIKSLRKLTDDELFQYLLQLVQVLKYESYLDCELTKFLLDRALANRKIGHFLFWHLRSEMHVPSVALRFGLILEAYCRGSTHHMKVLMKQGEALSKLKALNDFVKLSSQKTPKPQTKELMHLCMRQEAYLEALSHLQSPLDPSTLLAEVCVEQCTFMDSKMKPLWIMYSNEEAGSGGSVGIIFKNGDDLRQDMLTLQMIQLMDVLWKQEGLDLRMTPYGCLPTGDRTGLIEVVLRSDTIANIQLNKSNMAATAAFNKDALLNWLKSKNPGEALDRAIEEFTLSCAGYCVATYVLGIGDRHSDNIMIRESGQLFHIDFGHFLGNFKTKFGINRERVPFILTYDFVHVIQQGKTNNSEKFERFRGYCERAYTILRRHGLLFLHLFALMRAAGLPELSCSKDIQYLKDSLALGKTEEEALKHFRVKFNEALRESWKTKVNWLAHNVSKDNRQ

Broadly, the inhibition is the change of the read-out against control, counted positive when it falls. For the molecule `O=c1c2ccccc2nc(CSc2ncnc3[nH]cnc23)n1-c1cccc(Cl)c1`, the inhibition against PIK3CA is 33%; at PIK3CB, 35%.

As a reminder, the IC50 is the concentration that inhibits the measured activity by half. Low values mean greater potency in that assay, high ones weaker potency in that assay. As a reminder, the EC50 is the concentration needed to bring the measured effect to its halfway point. As to `Nc1ncnc2c1ncn2Cc1nc2cc(F)ccc2c(=O)n1-c1ccccc1Cl`, the IC50 at PIK3CA worked out at 92 µM. Also, the results for the EC50 with PIK3CD (mouse) and at PIK3CD (Human) [1] were 3.9 µM and 5.7 µM, respectively. The inhibition at PIK3CB was 47%.

For `Nc1ncnc2c1ncn2Cc1nc2ccccc2c(=O)n1N1CCOCC1`, the inhibition was found to be 11% against PIK3CA and 43% at PIK3CB.

Turning to `O=c1c2c(Cl)cccc2nc(CSc2ncnc3[nH]cnc23)n1-c1ccccc1F`, the figures for the half-maximal effective concentration (EC50) in the experiment on PIK3CD (mouse) and at PIK3CD (Human) [2] were 0.3 µM and 0.9 µM, respectively. Also, the IC50 against PIK3CB is 105 µM and 55 µM.

Take `COc1cc2nc(Cn3cnc4c(N)ncnc43)n(-c3ccccc3Cl)c(=O)c2cc1OC`: on PIK3CA, the inhibition stood at 17%. The same molecule returned an IC50 at PIK3CB of 45 µM.

Take `Nc1ncnc2c1ncn2Cc1nc2cccc(Cl)c2c(=O)n1-c1ccccc1-c1ccccc1`: the IC50 on PIK3CA was 82 µM; against PIK3CB it was 6 µM and 18 µM. Moreover, the inhibition on PIK3CA was determined as 30%. Also, the EC50 in the experiment with PIK3CD (mouse) was determined as 0.3 µM; at PIK3CD (Human) [2] it was 10.5 µM.

As for `Nc1ncnc2c1ncn2Cc1nc2ccc(Cl)cc2c(=O)n1-c1ccccc1Cl`, the results for the inhibition on PIK3CA and against PIK3CB were 7% and 11%, respectively.

On to `O=c1c2cc(Br)ccc2nc(CSc2ncnc3[nH]cnc23)n1-c1ccccc1Cl`, for which the inhibition against PIK3CA is 11%; against PIK3CB, -8%.

As for `Cc1cccc2nc(CSc3ncnc4[nH]cnc34)n(-c3ccccc3C(C)C)c(=O)c12`, the EC50 with PIK3CD (mouse) stood at 0.2 µM; on PIK3CD (Human) [1], 2.9 µM; at PIK3CD (Human) [2], 0.3 µM.

For `O=c1c2cc(Cl)ccc2nc(CSc2ncnc3[nH]cnc23)n1-c1ccccc1Cl`, the inhibition against PIK3CA and on PIK3CB was 31% throughout.

In the case of `COc1cccc(-n2c(CSc3ncnc4[nH]cnc34)nc3ccccc3c2=O)c1`, the inhibition against PIK3CA stood at 23%; on PIK3CB, 36%.

Regarding `Nc1ncnc2c1ncn2Cc1nc2c(Cl)cccc2c(=O)n1-c1ccccc1Cl`, the inhibition against PIK3CA was 18%. Further, the EC50 in the experiment with PIK3CD (mouse) stood at 1 µM. The IC50 against PIK3CB worked out at 68 µM.

Regarding `COc1ccccc1-n1c(CSc2ncnc3[nH]cnc23)nc2ccccc2c1=O`, the inhibition against PIK3CA turned out to be 36%. Further, the IC50 against PIK3CB turned out to be 95 µM.

`O=c1c2cccc(Cl)c2nc(CSc2ncnc3[nH]cnc23)n1-c1ccccc1Cl`: the figures for the IC50 against PIK3CA and against PIK3CB were 100 µM and 110 µM, respectively. The EC50 came out at 1.8 µM in the experiment with PIK3CD (mouse) and 3.5 µM at PIK3CD (Human) [1].

Regarding `Nc1ncnc2c1ncn2Cc1nc2cccc(F)c2c(=O)n1Cc1ccccc1`, the inhibition at PIK3CA was -10%. Besides, the EC50 was 2 µM with PIK3CD (mouse), 6.3 µM at PIK3CD (Human) [1] and 5 µM at PIK3CD (Human) [2]. At PIK3CB, the IC50 is 30 µM.

Molecule `O=c1c2ccccc2nc(CSc2ncnc3[nH]cnc23)n1-c1ccc(Cl)cc1` displayed an IC50 against PIK3CA of 0.7 µM. Also, at PIK3CB, the inhibition was 31%.

`O=c1c2cc(F)c(F)cc2nc(CSc2ncnc3[nH]cnc23)n1-c1ccccc1Cl`: the EC50 in the experiment with PIK3CD (mouse) was above 2 µM; on PIK3CD (Human) [2], 2 µM. For the same molecule, the IC50 against PIK3CB is 110 µM and 58 µM.

In the case of `O=c1c2cc(F)ccc2nc(CSc2ncnc3[nH]cnc23)n1-c1ccccc1Cl`, the EC50 with PIK3CD (mouse) amounted to 0.4 µM. Further, at PIK3CB, the IC50 was found to be 13 µM and the inhibition was 19%. Moreover, the EC50 on PIK3CD (Human) [2] turned out to be 1 µM.

In the experiment with PIK3CD (mouse), `Cc1ccccc1-n1c(Cn2cnc3c(N)ncnc32)nc2cccc(C)c2c1=O` showed an EC50 of 0.1 µM.

Take `CCOC(=O)Cn1c(CSc2ncnc3[nH]cnc23)nc2cccc(F)c2c1=O`: the inhibition on PIK3CA is 2%; on PIK3CB, 26%. Besides, the EC50 at PIK3CD (Human) [2] worked out at 9 µM.

As for `Cc1cccc2nc(Cn3cnc4c(N)ncnc43)n(-c3ccccc3Cl)c(=O)c12`, the EC50 with PIK3CD (mouse) stood at 0.3 µM; on PIK3CD (Human) [1], 4.2 µM; at PIK3CD (Human) [2], 0.4 µM. In addition, the IC50 against PIK3CB was 30 µM and 72 µM.

As to `CCCCn1c(CSc2ncnc3[nH]cnc23)nc2ccccc2c1=O`, the EC50 in the experiment with PIK3CD (mouse) was 1.4 µM; at PIK3CD (Human) [1], 2.9 µM; on PIK3CD (Human) [2] it was 5 µM.

`CN1CCN(n2c(CSc3ncnc4[nH]cnc34)nc3ccccc3c2=O)CC1`: the IC50 against PIK3CA was determined as 105 µM; at PIK3CB, 61 µM.

As for `Nc1ncnc2c1ncn2Cc1nc2cccc(Cl)c2c(=O)n1-c1ccccc1Cl`, the results for the EC50 with PIK3CD (mouse), at PIK3CD (Human) [1] and at PIK3CD (Human) [2] were 0.2 µM, 5.3 µM and 0.3 µM, respectively. Further, at PIK3CB, the IC50 was 6 µM and 44 µM.

Take `O=c1c2cc(O)ccc2nc(CSc2ncnc3[nH]cnc23)n1-c1ccccc1Cl`: the IC50 on PIK3CA came to 100 µM. At PIK3CB, the inhibition came out at 24%. The EC50 on PIK3CD (Human) [2] was determined as 2.9 µM.

As to `Cc1cccc2nc(CSc3ncnc4[nH]cnc34)n(-c3c(Cl)cccc3Cl)c(=O)c12`, at PIK3CA, the IC50 is 19 µM and the inhibition stood at 8%. The molecule also yielded an EC50 with PIK3CD (mouse) of 0.6 µM. On PIK3CB, the IC50 was 11 µM and 103 µM.

Regarding `Nc1ncnc2c1ncn2Cc1nc2ccc(Br)cc2c(=O)n1-c1ccccc1Cl`, the results for the inhibition on PIK3CA and against PIK3CB were 12% and 22%, respectively.

With `COc1cc2nc(CSc3ncnc4[nH]cnc34)n(-c3ccccc3Cl)c(=O)c2cc1OC`, the inhibition against PIK3CA is 9%; at PIK3CB, 19%.

`O=c1c2cc3ccccc3cc2nc(CSc2ncnc3[nH]cnc23)n1-c1ccccc1Cl`: the IC50 on PIK3CA was 67 µM; at PIK3CB it was 105 µM and 100 µM. In addition, the inhibition on PIK3CA is 0%. Further, the EC50 in the experiment with PIK3CD (mouse) and at PIK3CD (Human) [1] was 0.9 µM in each case.

Take `CCCCn1c(Cn2cnc3c(N)ncnc32)nc2ccccc2c1=O`: the inhibition against PIK3CA was 1%. In addition, at PIK3CB, the IC50 came out at 41 µM.

Regarding `Cc1cccc2nc(Cn3cnc4c(N)ncnc43)n(-c3ccccc3F)c(=O)c12`, the IC50 was 90 µM and 70 µM against PIK3CA; 95 µM and 14 µM at PIK3CB. Also, the EC50 came to 0.4 µM in the experiment on PIK3CD (mouse), 5 µM at PIK3CD (Human) [1] and 0.9 µM at PIK3CD (Human) [2].

`Cc1cccc2nc(CSc3ncnc4[nH]cnc34)n(-c3ccccc3F)c(=O)c12`: the IC50 against PIK3CA came out at 74 µM. The inhibition at PIK3CA stood at 13%. For the same molecule, the values for the EC50 with PIK3CD (mouse) and at PIK3CD (Human) [2] were 0.2 µM and 0.7 µM, respectively.

For the molecule `O=c1c2ccccc2nc(CSc2ncnc3[nH]cnc23)n1-c1ccncc1`, the inhibition on PIK3CA came to 30%. At PIK3CB, the IC50 is 25 µM.

Take `Cc1ccccc1-n1c(CSc2ncnc3[nH]cnc23)nc2cccc(Cl)c2c1=O`: on PIK3CA, the IC50 came out at 48 µM and the inhibition came to 26%. This molecule yielded an EC50 with PIK3CD (mouse) of 0.2 µM. The EC50 at PIK3CD (Human) [2] stood at 0.3 µM.

On to `COc1ccccc1-n1c(CSc2ncnc3[nH]cnc23)nc2cccc(C)c2c1=O`, for which the IC50 on PIK3CA was 30 µM; at PIK3CB, 30 µM and 9 µM. The inhibition at PIK3CA was 19%. Further, the EC50 in the experiment with PIK3CD (mouse) turned out to be 0.3 µM; at PIK3CD (Human) [2], 0.5 µM.

As for `O=c1c2c(Cl)cccc2nc(CSc2ncnc3[nH]cnc23)n1-c1ccccc1-c1ccccc1`, the EC50 in the experiment on PIK3CD (mouse) was 1.4 µM. Besides, at PIK3CB, the IC50 was determined as 13 µM and the inhibition was found to be 27%.

As for `O=c1c2c(F)cccc2nc(CSc2ncnc3[nH]cnc23)n1Cc1ccccc1`, the inhibition stood at 17% against PIK3CA and 23% on PIK3CB. Further, the results for the EC50 with PIK3CD (mouse) and at PIK3CD (Human) [1] were 1.4 µM and 2.6 µM, respectively.

On to `O=c1c2ccc([N+](=O)[O-])cc2nc(CSc2ncnc3[nH]cnc23)n1-c1ccccc1Cl`, for which the values for the inhibition against PIK3CA and on PIK3CB were 17% and 9%, respectively.

The record behind these values is the Kinase Knowledgebase extract (Sharma et al. 2016).
